According to the supplement of paper PMC10307832:

Legend:
Test in all cases: relative viability (nuclei count vs DMSO), 5 days (fraction); higher = more cells survive
NCI-H1915 = tested on: NCI-H1915
In short: (§1)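 Lung cancer cell lines in 1536-well plates got either a single drug or a fixed anchor-drug dose together with five library-drug doses (not always all listed) in √10 steps, by pin tool, on the day after seeding. Nuclei were counted after 5 days, and relative viability is the treated-to-vehicle ratio of nuclei counts. Values are medians of duplicate plates.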

UMC-11 = tested on: UMC-11
In short: as §1

SK-LU-1 = tested on: SK-LU-1
In short: as §1

HOP-62 = tested on: HOP-62
In short: as §1

NCI-H2009 = tested on: NCI-H2009
In short: as §1

NCI-H2085 = tested on: NCI-H2085
In short: as §1

NCI-H1944 = tested on: NCI-H1944
In short: as §1

LXF-289 = tested on: LXF-289
In short: as §1

NCI-H1793 = tested on: NCI-H1793
In short: as §1

LU99A = tested on: LU99A
In short: as §1

HCC-366 = tested on: HCC-366
In short: as §1

LC-2-ad = tested on: LC-2-ad
In short: as §1

NCI-H1792 = tested on: NCI-H1792
In short: as §1

HCC-78 = tested on: HCC-78
In short: as §1

NCI-H460 = tested on: NCI-H460
In short: as §1

COR-L 105 = tested on: COR-L 105
In short: as §1

A-427 = tested on: A-427
In short: as §1

NCI-H358 = tested on: NCI-H358
In short: as §1

NCI-H2170 = tested on: NCI-H2170
In short: as §1

EPLC-272H = tested on: EPLC-272H
In short: as §1

NCI-H1666 = tested on: NCI-H1666
In short: as §1

SW 900 = tested on: SW 900
In short: as §1

Question: How did the relative viability (NCI-H1915; first compound 0.0002 µM) turn out when `CC(=O)O[C@@]12CO[C@@H]1C[C@H](O)[C@@]1(C)C(=O)[C@H](O)C3=C(C)[C@@H](OC(=O)[C@H](O)[C@@H](NC(=O)OC(C)(C)C)c4ccccc4)C[C@@](O)([C@@H](OC(=O)c4ccccc4)[C@H]21)C3(C)C` [Docetaxel] + N=C(N)NC(=N)NCCc1ccccc1 [Phenformin] (partner 250 µM) was run?
Answer: 0.364

Question: What about the relative viability (NCI-H1915; first compound 0.000632 µM) of the same compound?
Answer: 0.312

Question: What about the relative viability (NCI-H1915; first compound 0.002 µM) of the same compound?
Answer: 0.21

Question: What about the relative viability (NCI-H1915; first compound 0.006325 µM) of the same compound?
Answer: 0.147

Question: What about the relative viability (NCI-H1915; first compound 0.02 µM) of the same compound?
Answer: 0.116

Question: What about the relative viability (UMC-11; first compound 0.0002 µM) of the same compound?
Answer: 0.309

Question: What about the relative viability (UMC-11; first compound 0.000632 µM) of the same compound?
Answer: 0.332

Question: And the relative viability (UMC-11; first compound 0.002 µM)?
Answer: 0.228

Question: What about the relative viability (UMC-11; first compound 0.006325 µM) of the same compound?
Answer: 0.205

Question: What about the relative viability (UMC-11; first compound 0.02 µM) of the same compound?
Answer: 0.199

Question: What about the relative viability (SK-LU-1; first compound 0.0002 µM) of the same compound?
Answer: 0.48

Question: What about the relative viability (SK-LU-1; first compound 0.000632 µM) of the same compound?
Answer: 0.285

Question: What about the relative viability (SK-LU-1; first compound 0.002 µM) of the same compound?
Answer: 0.239

Question: And the relative viability (SK-LU-1; first compound 0.006325 µM)?
Answer: 0.183

Question: What about the relative viability (SK-LU-1; first compound 0.02 µM) of the same compound?
Answer: 0.115

Question: And the relative viability (HOP-62; first compound 0.0002 µM)?
Answer: 0.671

Question: And the relative viability (HOP-62; first compound 0.000632 µM)?
Answer: 0.501

Question: What about the relative viability (HOP-62; first compound 0.002 µM) of the same compound?
Answer: 0.322

Question: And the relative viability (NCI-H2009; first compound 0.0002 µM)?
Answer: 0.483

Question: What about the relative viability (NCI-H2009; first compound 0.000632 µM) of the same compound?
Answer: 0.526

Question: And the relative viability (NCI-H2009; first compound 0.002 µM)?
Answer: 0.463

Question: What about the relative viability (NCI-H2009; first compound 0.006325 µM) of the same compound?
Answer: 0.321

Question: What about the relative viability (NCI-H2009; first compound 0.02 µM) of the same compound?
Answer: 0.202

Question: And the relative viability (NCI-H2085; first compound 0.0002 µM)?
Answer: 0.735

Question: And the relative viability (NCI-H2085; first compound 0.000632 µM)?
Answer: 0.651

Question: And the relative viability (NCI-H2085; first compound 0.002 µM)?
Answer: 0.461

Question: And the relative viability (NCI-H2085; first compound 0.006325 µM)?
Answer: 0.389

Question: What about the relative viability (NCI-H2085; first compound 0.02 µM) of the same compound?
Answer: 0.194

Question: What about the relative viability (NCI-H1944; first compound 0.0002 µM) of the same compound?
Answer: 0.182

Question: And the relative viability (NCI-H1944; first compound 0.000632 µM)?
Answer: 0.188

Question: What about the relative viability (NCI-H1944; first compound 0.002 µM) of the same compound?
Answer: 0.163

Question: What about the relative viability (NCI-H1944; first compound 0.006325 µM) of the same compound?
Answer: 0.133

Question: What about the relative viability (NCI-H1944; first compound 0.02 µM) of the same compound?
Answer: 0.0967

Question: What about the relative viability (LXF-289; first compound 0.0002 µM) of the same compound?
Answer: 0.521

Question: And the relative viability (LXF-289; first compound 0.000632 µM)?
Answer: 0.42

Question: And the relative viability (LXF-289; first compound 0.002 µM)?
Answer: 0.127

Question: And the relative viability (LXF-289; first compound 0.006325 µM)?
Answer: 0.0915

Question: What about the relative viability (LXF-289; first compound 0.02 µM) of the same compound?
Answer: 0.0828

Question: And the relative viability (NCI-H1793; first compound 0.0002 µM)?
Answer: 0.302

Question: And the relative viability (NCI-H1793; first compound 0.000632 µM)?
Answer: 0.319

Question: And the relative viability (NCI-H1793; first compound 0.002 µM)?
Answer: 0.322

Question: What about the relative viability (NCI-H1793; first compound 0.006325 µM) of the same compound?
Answer: 0.245

Question: What about the relative viability (NCI-H1793; first compound 0.02 µM) of the same compound?
Answer: 0.173

Question: And the relative viability (LU99A; first compound 0.0002 µM)?
Answer: 0.811

Question: And the relative viability (LU99A; first compound 0.000632 µM)?
Answer: 0.656

Question: What about the relative viability (LU99A; first compound 0.002 µM) of the same compound?
Answer: 0.364

Question: What about the relative viability (LU99A; first compound 0.006325 µM) of the same compound?
Answer: 0.335

Question: And the relative viability (LU99A; first compound 0.02 µM)?
Answer: 0.242

Question: What about the relative viability (HCC-366; first compound 0.0002 µM) of the same compound?
Answer: 0.599

Question: What about the relative viability (HCC-366; first compound 0.000632 µM) of the same compound?
Answer: 0.253

Question: What about the relative viability (HCC-366; first compound 0.002 µM) of the same compound?
Answer: 0.147

Question: And the relative viability (HCC-366; first compound 0.006325 µM)?
Answer: 0.0428

Question: And the relative viability (HCC-366; first compound 0.02 µM)?
Answer: 0.0275

Question: And the relative viability (LC-2-ad; first compound 0.0002 µM)?
Answer: 0.497

Question: What about the relative viability (LC-2-ad; first compound 0.000632 µM) of the same compound?
Answer: 0.494

Question: What about the relative viability (LC-2-ad; first compound 0.002 µM) of the same compound?
Answer: 0.327

Question: And the relative viability (LC-2-ad; first compound 0.006325 µM)?
Answer: 0.243

Question: And the relative viability (NCI-H1792; first compound 0.0002 µM)?
Answer: 0.221

Question: And the relative viability (NCI-H1792; first compound 0.000632 µM)?
Answer: 0.23

Question: What about the relative viability (NCI-H1792; first compound 0.002 µM) of the same compound?
Answer: 0.0848

Question: What about the relative viability (NCI-H1792; first compound 0.006325 µM) of the same compound?
Answer: 0.126

Question: And the relative viability (NCI-H1792; first compound 0.02 µM)?
Answer: 0.0575

Question: And the relative viability (HCC-78; first compound 0.0002 µM)?
Answer: 0.582

Question: And the relative viability (HCC-78; first compound 0.000632 µM)?
Answer: 0.615

Question: And the relative viability (HCC-78; first compound 0.002 µM)?
Answer: 0.409

Question: What about the relative viability (HCC-78; first compound 0.006325 µM) of the same compound?
Answer: 0.371

Question: And the relative viability (HCC-78; first compound 0.02 µM)?
Answer: 0.354

Question: What about the relative viability (NCI-H460; first compound 0.0002 µM) of the same compound?
Answer: 0.481

Question: What about the relative viability (NCI-H460; first compound 0.000632 µM) of the same compound?
Answer: 0.351

Question: What about the relative viability (NCI-H460; first compound 0.002 µM) of the same compound?
Answer: 0.0311

Question: What about the relative viability (NCI-H460; first compound 0.006325 µM) of the same compound?
Answer: 0.0221

Question: And the relative viability (NCI-H460; first compound 0.02 µM)?
Answer: 0.0125

Question: What about the relative viability (COR-L 105; first compound 0.0002 µM) of the same compound?
Answer: 0.431

Question: What about the relative viability (COR-L 105; first compound 0.000632 µM) of the same compound?
Answer: 0.392

Question: And the relative viability (COR-L 105; first compound 0.002 µM)?
Answer: 0.279

Question: What about the relative viability (COR-L 105; first compound 0.006325 µM) of the same compound?
Answer: 0.267

Question: What about the relative viability (COR-L 105; first compound 0.02 µM) of the same compound?
Answer: 0.247

Question: What about the relative viability (A-427; first compound 0.0002 µM) of the same compound?
Answer: 0.324

Question: And the relative viability (A-427; first compound 0.000632 µM)?
Answer: 0.328

Question: What about the relative viability (A-427; first compound 0.002 µM) of the same compound?
Answer: 0.165

Question: And the relative viability (A-427; first compound 0.006325 µM)?
Answer: 0.149

Question: And the relative viability (A-427; first compound 0.02 µM)?
Answer: 0.12

Question: What about the relative viability (NCI-H358; first compound 0.0002 µM) of the same compound?
Answer: 0.247

Question: What about the relative viability (NCI-H358; first compound 0.000632 µM) of the same compound?
Answer: 0.188

Question: What about the relative viability (NCI-H358; first compound 0.006325 µM) of the same compound?
Answer: 0.0907

Question: And the relative viability (NCI-H358; first compound 0.02 µM)?
Answer: 0.0664

Question: What about the relative viability (NCI-H2170; first compound 0.0002 µM) of the same compound?
Answer: 0.405

Question: What about the relative viability (NCI-H2170; first compound 0.000632 µM) of the same compound?
Answer: 0.428

Question: What about the relative viability (NCI-H2170; first compound 0.002 µM) of the same compound?
Answer: 0.267

Question: What about the relative viability (NCI-H2170; first compound 0.006325 µM) of the same compound?
Answer: 0.217

Question: And the relative viability (NCI-H2170; first compound 0.02 µM)?
Answer: 0.174

Question: What about the relative viability (EPLC-272H; first compound 0.0002 µM) of the same compound?
Answer: 0.304

Question: What about the relative viability (EPLC-272H; first compound 0.000632 µM) of the same compound?
Answer: 0.242

Question: And the relative viability (EPLC-272H; first compound 0.002 µM)?
Answer: 0.194

Question: And the relative viability (EPLC-272H; first compound 0.006325 µM)?
Answer: 0.0792

Question: What about the relative viability (EPLC-272H; first compound 0.02 µM) of the same compound?
Answer: 0.0848

Question: What about the relative viability (NCI-H1666; first compound 0.0002 µM) of the same compound?
Answer: 0.47

Question: What about the relative viability (NCI-H1666; first compound 0.000632 µM) of the same compound?
Answer: 0.515

Question: What about the relative viability (NCI-H1666; first compound 0.002 µM) of the same compound?
Answer: 0.537

Question: And the relative viability (NCI-H1666; first compound 0.006325 µM)?
Answer: 0.382

Question: What about the relative viability (NCI-H1666; first compound 0.02 µM) of the same compound?
Answer: 0.337

Question: What about the relative viability (SW 900; first compound 0.0002 µM) of the same compound?
Answer: 0.389

Question: And the relative viability (SW 900; first compound 0.000632 µM)?
Answer: 0.235

Question: And the relative viability (SW 900; first compound 0.002 µM)?
Answer: 0.262

Question: What about the relative viability (SW 900; first compound 0.006325 µM) of the same compound?
Answer: 0.167

Question: And the relative viability (SW 900; first compound 0.02 µM)?
Answer: 0.0976
